Laboratory results published in patent US20230263822A1, “MODULATION OF FACTOR 11 EXPRESSION” (Ionis Pharmaceuticals, Inc., priority 2008, published 2023).

Experiments:
[1] = Tolerability in CD1 mice: organ weight (Example 33); format: in vivo; conditions: 50 mg/kg s.c. twice a week, vs PBS control, normalized to body weight
Experimental: Three days after the last dose was administered to all groups, the mice were sacrificed.

[2] = set-up: species or system CD1 mice; conditions: mouse, in vivo
Experimental: Five mice from each group were sacrificed 3 days, 28 days and 56 days following the final dose. Livers were harvested for analysis.
The concentration of the full-length oligonucleotide as well as the total oligonucleotide concentration (including the degraded form) was measured. The method used is a modification of previously published methods (Leeds et al., 1996; Geary et al., 1999) which consist of a phenol-chloroform (liquid-liquid) extraction followed by a solid phase extraction. An internal standard (ISIS 355868, a 27-mer 2′-O-methoxyethyl modified phosphorothioate oligonucleotide, […], designated herein as SEQ ID NO: 270) was added prior to extraction. […] Half-lives were then calculated using WinNonlin software ([…]).
The results are presented in Tables 68 and 69, expressed as μg/g liver tissue.

[3] = tested on: human Factor 11 mRNA; experiment: Dose-dependent inhibition of human Factor 11 in HepG2 cells, electroporation 625-20,000 nM (Example 5); format: cell-based; conditions: ~16 hours
Experimental: The gapmers were also transfected via electroporation and their dose dependent inhibition of human Factor 11 mRNA was measured. Cells were plated at a density of 20,000 cells per well and transfected via electroporation with 625 nM, 1250 nM, 2500 nM, 5,000 nM, 10,000 nM, and 20,000 nM concentrations of antisense oligonucleotide, as specified in Table 12. After a treatment period of approximately 16 hours, RNA was isolated from the cells and human Factor 11 mRNA levels were measured by quantitative real-time PCR. Human Factor 11 primer probe set RTS 2966 was used to measure mRNA levels. Factor 11 mRNA levels were adjusted according to total RNA content, as measured by RIBOGREEN. Results are presented as percent inhibition of human Factor 11, relative to untreated control cells.

| Substance | Percent change in kidney weight ([1]; 2 weeks) | Percent change in liver weight ([1]; 2 weeks) | Percent change in spleen weight ([1]; 2 weeks) | Percent change in kidney weight ([1]; 4 weeks) | Percent change in liver weight ([1]; 4 weeks) | Percent change in spleen weight ([1]; 4 weeks) | Percent change in kidney weight ([1]; 6 weeks) | Percent change in liver weight ([1]; 6 weeks) | Percent change in spleen weight ([1]; 6 weeks) | Half-Life in the liver [2] | percent inhibition of human Factor 11 mRNA relative to untreated control cells ([3]; 625 nM) | percent inhibition of human Factor 11 mRNA relative to untreated control cells ([3]; 1250 nM) | percent inhibition of human Factor 11 mRNA relative to untreated control cells ([3]; 2500 nM) | percent inhibition of human Factor 11 mRNA relative to untreated control cells ([3]; 5000 nM) | percent inhibition of human Factor 11 mRNA relative to untreated control cells ([3]; 10000 nM) | percent inhibition of human Factor 11 mRNA relative to untreated control cells ([3]; 20000 nM) |
| --- | --- | --- | --- | --- | --- | --- | --- | --- | --- | --- | --- | --- | --- | --- | --- | --- |
| 416838 (antisense GCAACCGGGATGATGAGTGC; 5-10-5 gapmer, further chemistry not given here) [compound 416838] | −2% | +8% | +21% | −12% | −6% | −8% | −8% | 0% | +9% | 13 days | 66% | 79% | 87% | 90% | 93% | 96% |
| 416850 (antisense TGCACAGTTTCTGGCAGGCC; 5-10-5 gapmer, further chemistry not given here) [compound 416850] | −0% | +5% | −4% | −12% | +3% | +6% | −11% | +6% | +48% | 18 days | 69% | 80% | 87% | 90% | 93% | 96% |
| 416858 (antisense ACGGCATTGGTGCACAGTTT; 5-10-5 gapmer, further chemistry not given here) [compound 416858] | +1% | +7% | −2% | −18% | +1% | +8% | −10% | +10% | +28% | 26 days | 65% | 77% | 87% | 89% | 93% | 93% |
| 416864 (antisense GGCAGCGGACGGCATTGGTG; 5-10-5 gapmer, further chemistry not given here) [compound 416864] | −4% | −2% | −10% | −9% | +2% | −2% | −15% | −5% | −6% | 13 days | 45% | 74% | 84% | 87% | 92% | 94% |
| 416892 (antisense GCCCTTCATGTCTAGGTCCA; 3-14-3 chimeric gapmer, further chemistry not given here) [compound 416892] | +2% | +35% | +24% | −3% | +88% | +30% | +19% | +95% | +65% | 12 days | 66% | 86% | 96% | 97% | 100% | 100% |
| 416925 (antisense GGTGCACAGTTTCTGGCAGG; 3-14-3 gapmer chemistry, further chemistry not given here) [compound 416925] | −4% | +14% | −7% | −14% | +14% | +33% | −2% | +33% | +78% | 12 days | 64% | 80% | 88% | 91% | 95% | 96% |
| 416999 (antisense GCACAGTTTCTGGCAGGCCT; 2-13-5 gapmer chemistry, further chemistry not given here) [compound 416999] | −9% | +13% | +7% | −6% | +30% | +22% | −7% | +47% | +38% | 9 days | 61% | 82% | 89% | 94% | 94% | 97% |
| 417002 (antisense GGTGCACAGTTTCTGGCAGG; 2-13-5 gapmer chemistry, further chemistry not given here) [compound 417002] | +3% | +14% | +29% | −5% | +8% | +26% | −2% | +35% | +108% | 11 days | 59% | 72% | 86% | 90% | 94% | 96% |
| 417003 (antisense TGGTGCACAGTTTCTGGCAG; 2-13-5 gapmer chemistry, further chemistry not given here) [compound 417003] | −9% | +8% | +12% | −2% | +42% | +101% | −1% | +32% | +98% | 10 days | 60% | 74% | 86% | 90% | 95% | 95% |
